Laboratory results taken from the supplement of paper PMC9663587.

Tests used:
Bleomycin = compound: CC1=C(N=C(N=C1N)[C@H](CC(=O)N)NC[C@@H](C(=O)N)N)C(=O)N[C@@H]([C@H](C2=CN=CN2)OC3C(C(C(C(O3)CO)O)O)OC4C(C(C(C(O4)CO)O)OC(=O)N)O)C(=O)N[C@H](C)[C@H]([C@H](C)C(=O)N[C@@H]([C@@H](C)O)C(=O)NCCC5=NC(=CS5)C6=NC(=CS6)C(=O)NCCC[S+](C)C)O [Bleomycin]; conditions: main component drawn
FMF-03-145-1 = compound: CCC(=O)Nc1ccc(C(=O)Nc2ccc(Nc3ncc4c(n3)N(C)c3ccc(C)cc3C(=O)N4C)cc2)cc1 [FMF-03-145-1]
Topotecan = compound: CC[C@@]1(O)C(=O)OCc2c1cc1n(c2=O)Cc2cc3c(CN(C)C)c(O)ccc3nc2-1 [Topotecan]
Everolimus = compound: CO[C@H]1C[C@@H]2CC[C@@H](C)[C@@](O)(O2)C(=O)C(=O)N2CCCC[C@H]2C(=O)O[C@H]([C@H](C)C[C@@H]2CC[C@@H](OCCO)[C@H](OC)C2)CC(=O)[C@H](C)/C=C(\C)[C@@H](O)[C@@H](OC)C(=O)[C@H](C)C[C@H](C)/C=C/C=C/C=C/1C [Everolimus]
Etoposide = compound: COc1cc([C@@H]2c3cc4c(cc3[C@@H](O[C@@H]3O[C@@H]5CO[C@@H](C)O[C@H]5[C@H](O)[C@H]3O)[C@H]3COC(=O)[C@H]23)OCO4)cc(OC)c1O [Etoposide]
[1] = compound: COc1cccc(OCCCN)c1-c1cc(Nc2cnc(C#N)cn2)n[nH]1
Cisplatin = compound: N.N.Cl[Pt]Cl [Cisplatin]
BSJ-03-123 = compound: CC(=O)c1c(C)c2cnc(Nc3ccc(N4CCN(CCOCCOCCOCCNC(=O)COc5cccc6c5C(=O)N(C5CCC(=O)NC5=O)C6=O)CC4)cn3)nc2n(C2CCCC2)c1=O [BSJ-03-123]; test: GR value, 72 h; higher = faster growth (1 = untreated, <0 = killing);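 further: breast cancer and non-malignant breast epithelial lines, nine half-log doses, viable cells counted by Hoechst and LIVE/DEAD dye imaging versus time-zero plates and DMSO controls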
Neratinib/HKI272 = compound: CCOc1cc2ncc(C#N)c(Nc3ccc(OCc4ccccn4)c(Cl)c3)c2cc1NC(=O)/C=C/CN(C)C [Neratinib/HKI272]; test: as above
YKL-5-124 = compound: C=CC(=O)Nc1ccc(C(=O)Nc2[nH]nc3c2CN(C(=O)N[C@H](CN(C)C)c2ccccc2)C3(C)C)cc1 [YKL-5-124]
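Wherever GR50, 72 h is given: breast cancer and non-malignant breast epithelial cell lines, Deep Dye Drop or Dye Drop imaging, nine half-log doses, GR normalized to time-zero plates and DMSO-only controls.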

Cell Line | GR50, 72 h (Bleomycin) [µM] | GR50, 72 h (FMF-03-145-1) [µM] | GR50, 72 h (Topotecan) [µM] | GR50, 72 h (Everolimus) [µM] | GR50, 72 h (Etoposide) [µM] | GR50, 72 h [1] [µM] | GR50, 72 h (Cisplatin) [µM] | GR value (BSJ-03-123; 0.001 µM) [GR] | GR value (BSJ-03-123; 0.003162 µM) [GR] | GR value (BSJ-03-123; 0.01 µM) [GR] | GR value (BSJ-03-123; 0.03162 µM) [GR] | GR value (BSJ-03-123; 0.1 µM) [GR] | GR value (BSJ-03-123; 0.3162 µM) [GR] | GR value (BSJ-03-123; 1 µM) [GR] | GR value (BSJ-03-123; 3.162 µM) [GR] | GR value (BSJ-03-123; 10 µM) [GR] | GR value (Neratinib/HKI272; 0.0003162 µM) [GR] | GR value (Neratinib/HKI272; 0.001 µM) [GR] | GR value (Neratinib/HKI272; 0.003162 µM) [GR] | GR value (Neratinib/HKI272; 0.01 µM) [GR] | GR value (Neratinib/HKI272; 0.03162 µM) [GR] | GR value (Neratinib/HKI272; 0.1 µM) [GR] | GR value (Neratinib/HKI272; 0.3162 µM) [GR] | GR value (Neratinib/HKI272; 1 µM) [GR] | GR value (Neratinib/HKI272; 3.162 µM) [GR] | GR50, 72 h (YKL-5-124) [µM]
CAL851 | 0.453 | 0.00449 | 0.0158 | 0.00155 | 0.416 | 0.000351 | 1.03 | 1.15 | 0.948 | 0.849 | 0.839 | 0.601 | 0.599 | 0.447 | 0.209 | -0.238 | 1.04 | 0.993 | 0.881 | 0.747 | 0.435 | 0.226 | 0.109 | -0.0501 | -0.322 | 
CAMA1 | 1.69 | 0.00649 | 0.00321 |  | 0.155 | 0.00063 | 0.919 | 0.778 | 0.65 | 0.463 | 0.391 | 0.264 | 0.238 | 0.219 | 0.219 | 0.0155 | 1.08 | 1.01 | 1.01 | 0.989 | 1 | 0.993 | 0.949 | 0.837 | 0.455 | 
HCC38 | 0.199 | 0.00507 | 0.00681 |  | 0.334 | 0.000505 | 0.993 | 0.699 | 0.719 | 0.468 | 0.463 | 0.454 | 0.419 | 0.341 | 0.306 | -0.0958 | 1.02 | 1.03 | 0.987 | 0.96 | 0.879 | 0.951 | 0.823 | 0.846 | 0.456 | < 0.001
